Inconclusive results and toxic doses are left out. Peptide text beside a SMILES is read from it. * marks the point of attachment. Butyryl = CCCC(=O)*; Bn = c1ccc(C*)cc1
System: P388 leukemia ip, CD2F1 mice, survival T/C
Assay: NCI In Vivo Anticancer Drug Screen. Data for tumor model P388 Leukemia (intraperitoneal) in CD2F1 (CDF1) mice
Settings: endpoint: median survival time, higher = longer survival
Procedure, shortened: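 Mice carrying the transplanted tumor received test compound or vehicle. Survival was recorded in each group, and the value is the treated-group measurement divided by that of the vehicle-treated control group.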

[1] = dose: 50.0 mg/kg/injection, schedule: Q01DX009 (ip), vehicle: saline with Tween-80
[2] = dose: 100.0 mg/kg/injection, schedule: Q01DX009 (ip), vehicle: saline with Tween-80
[3] = dose: 200.0 mg/kg/injection, schedule: Q01DX009 (ip), vehicle: saline with Tween-80
[4] = dose: 60.0 mg/kg/injection, schedule: Q01DX005 (ip), vehicle: saline
[5] = dose: 120.0 mg/kg/injection, schedule: Q01DX005 (ip), vehicle: saline
[6] = dose: 240.0 mg/kg/injection, schedule: Q01DX005 (ip), vehicle: saline
[7] = dose: 60.0 mg/kg/injection, schedule: Q01DX005 (ip), vehicle: saline with Tween-80
[8] = dose: 120.0 mg/kg/injection, schedule: Q01DX005 (ip), vehicle: saline with Tween-80
[9] = dose: 240.0 mg/kg/injection, schedule: Q01DX005 (ip), vehicle: saline with Tween-80
[10] = dose: 100.0 mg/kg/injection, schedule: Q04DX003 (ip), vehicle: saline with Tween-80
[11] = dose: 200.0 mg/kg/injection, schedule: Q04DX003 (ip), vehicle: saline with Tween-80
[12] = dose: 400.0 mg/kg/injection, schedule: Q04DX003 (ip), vehicle: saline with Tween-80
[13] = dose: 50.0 mg/kg/injection, schedule: Q01DX009 (ip), vehicle: saline
[14] = dose: 100.0 mg/kg/injection, schedule: Q01DX009 (ip), vehicle: saline
[15] = dose: 200.0 mg/kg/injection, schedule: Q01DX009 (ip), vehicle: saline

`COCCOC(=O)CCn1nc(-c2ccccc2)c(-c2ccccc2)c(C#N)c1=O` was tested, and the T/C (dose: 100.0 mg/kg/injection, schedule: Q04DX002 (ip), vehicle: saline with Tween-80) was 104 % of control, the T/C (dose: 200.0 mg/kg/injection, schedule: Q04DX002 (ip), vehicle: saline with Tween-80) was 106 % of control and the T/C (dose: 400.0 mg/kg/injection, schedule: Q04DX002 (ip), vehicle: saline with Tween-80) was 100 % of control.
For `CCCC(=O)NC(CSCc1ccccc1)C(=O)NC(CCC(=O)OC)C(=O)OC` (stereo unspecified) (Butyryl-Cys(Bn)-Glu(OMe)-OMe; configuration not given here), the T/C [1] was 104 % of control, the T/C [2] was 104 % of control and the T/C [3] was 96 % of control.
With `N#CN=[N+]([O-])c1ccccc1Cl` the T/C (dose: 3.12 mg/kg/injection, schedule: Q01DX009 (ip), vehicle: Klucel (hydroxypropylcellulose) (HPC)) was 100 % of control, the T/C (dose: 6.25 mg/kg/injection, schedule: Q01DX009 (ip), vehicle: Klucel (hydroxypropylcellulose) (HPC)) was 107 % of control and the T/C (dose: 6.25 mg/kg/injection, schedule: Q04DX003 (ip), vehicle: Klucel (hydroxypropylcellulose) (HPC)) was 91 % of control. The T/C (dose: 12.5 mg/kg/injection, schedule: Q01DX009 (ip), vehicle: Klucel (hydroxypropylcellulose) (HPC)) was 109 % of control, the T/C (dose: 12.5 mg/kg/injection, schedule: Q04DX003 (ip), vehicle: Klucel (hydroxypropylcellulose) (HPC)) was 100 % of control and the T/C (dose: 25.0 mg/kg/injection, schedule: Q04DX003 (ip), vehicle: Klucel (hydroxypropylcellulose) (HPC)) was 91 % of control.
For `COc1ccc(/C=N/N2CN(C(C)C(=O)O)B(N(CCO)CCO)N=C2N)cc1OC` (stereo unspecified), the T/C [4] was 104 % of control, the T/C [5] was 107 % of control and the T/C [6] was 107 % of control.
With `COc1cc(C(=O)CC2=NC3NN(c4ccccc4)C(=O)C3=C2CC(=O)c2ccc(O)c(OC)c2)ccc1O` (stereo unspecified) the T/C [4] was 100 % of control, the T/C [5] was 102 % of control and the T/C [6] was 98 % of control.
`CC1=NNC(=O)CC1C(O)c1ccc(F)cc1` (stereo unspecified) was tested, and the T/C [7] was 100 % of control, the T/C [8] was 104 % of control and the T/C [9] was 100 % of control.
With `CC(C)N=Cc1ccccc1O.CC(C)N=Cc1ccccc1O.[Cu]` the T/C (dose: 25.0 mg/kg/injection, schedule: Q04DX003 (ip), vehicle: saline with Tween-80) was 100 % of control and the T/C (dose: 50.0 mg/kg/injection, schedule: Q04DX003 (ip), vehicle: saline with Tween-80) was 100 % of control.
For `Cc1ccc(N/N=c2\c3nc4ccccc4nc2n(-c2ccccc2C)c(=S)n3-c2ccc(C)cc2)cc1`, the T/C [7] was 93 % of control and the T/C [8] was 96 % of control.
In the case of `C=C(C)Cn1ccn(C)c1=S`, the T/C [10] is reported as 96 % of control, the T/C [11] is reported as 98 % of control and the T/C [12] is reported as 102 % of control.
`Cc1ccc(C)[nH][nH]c(N)n1` was tested, and the T/C (dose: 25.0 mg/kg/injection, schedule: Q01DX009 (ip), vehicle: water) was 99 % of control, the T/C (dose: 50.0 mg/kg/injection, schedule: Q01DX009 (ip), vehicle: water) was 101 % of control and the T/C (dose: 100.0 mg/kg/injection, schedule: Q01DX009 (ip), vehicle: water) was 101 % of control.
In the case of `Cn1c(=S)[nH]c2sc3c(c2c1=O)CCCC3`, the T/C [8] is reported as 97 % of control and the T/C [9] is reported as 96 % of control.
`C[Si](C)(C)c1cc[c]([Sn]([CH3])([CH3])[CH3])cc1` was tested, and the T/C [13] was 105 % of control, the T/C [14] was 101 % of control and the T/C [15] was 93 % of control.
In the case of `CN(C)N1C(=O)C(C(=O)Nc2cccc3ccccc23)SC1=S` (stereo unspecified), the T/C (dose: 0.75 mg/kg/injection, schedule: Q01DX005 (ip), vehicle: saline with Tween-80) is reported as 96 % of control, the T/C (dose: 1.5 mg/kg/injection, schedule: Q01DX005 (ip), vehicle: saline with Tween-80) is reported as 88 % of control and the T/C (dose: 3.0 mg/kg/injection, schedule: Q01DX005 (ip), vehicle: saline with Tween-80) is reported as 91 % of control. The T/C (dose: 100.0 mg/kg/injection, schedule: Q01DX005 (ip), vehicle: saline with Tween-80) was 99 % of control and the T/C (dose: 200.0 mg/kg/injection, schedule: Q01DX005 (ip), vehicle: saline with Tween-80) was 103 % of control.
For `COC1OC2COC(c3ccccc3)OC2C(O)C1O` (stereo unspecified), the T/C [1] was 100 % of control, the T/C [2] was 107 % of control and the T/C [3] was 105 % of control. The T/C (dose: 400.0 mg/kg/injection, schedule: Q01DX009 (ip), vehicle: saline with Tween-80) was 107 % of control.
`O=S(=O)(O)CNc1ccc(Br)cc1` was tested, and the T/C (dose: 100.0 mg/kg/injection, schedule: Q04DX003 (ip), vehicle: saline) was 99 % of control, the T/C (dose: 200.0 mg/kg/injection, schedule: Q04DX003 (ip), vehicle: saline) was 99 % of control and the T/C (dose: 400.0 mg/kg/injection, schedule: Q04DX003 (ip), vehicle: saline) was 89 % of control.
In the case of `CC(=O)Nc1ccc2c(Nc3ccc(NS(C)(=O)=O)cc3)c3ccccc3nc2c1`, the T/C (dose: 0.09 mg/kg/injection, schedule: Q01DX009 (ip), vehicle: saline) is reported as 151 % of control, the T/C (dose: 0.09 mg/kg/injection, schedule: Q04DX003 (ip), vehicle: saline) is reported as 156 % of control and the T/C (dose: 0.13 mg/kg/injection, schedule: Q01DX009 (ip), vehicle: saline) is reported as 151 % of control. The T/C (dose: 0.13 mg/kg/injection, schedule: Q04DX003 (ip), vehicle: saline) was 175 % of control, the T/C (dose: 0.2 mg/kg/injection, schedule: Q01DX009 (ip), vehicle: saline) was 164 % of control and the T/C (dose: 0.2 mg/kg/injection, schedule: Q04DX003 (ip), vehicle: saline) was 166 % of control. For the same molecule, the T/C (dose: 0.29 mg/kg/injection, schedule: Q01DX009 (ip), vehicle: saline) was 190 % of control, the T/C (dose: 0.3 mg/kg/injection, schedule: Q01DX009 (ip), vehicle: saline) was 169 % of control and the T/C (dose: 0.3 mg/kg/injection, schedule: Q04DX003 (ip), vehicle: saline) was 175 % of control. The T/C (dose: 0.44 mg/kg/injection, schedule: Q01DX009 (ip), vehicle: saline) was 193 % of control, the T/C (dose: 0.66 mg/kg/injection, schedule: Q01DX009 (ip), vehicle: saline) was 193 % of control and the T/C (dose: 1.0 mg/kg/injection, schedule: Q01DX009 (ip), vehicle: saline) was 200 % of control. For the same molecule, the T/C (dose: 1.0 mg/kg/injection, schedule: Q04DX003 (ip), vehicle: saline) was 155 % of control, the T/C (dose: 2.2 mg/kg/injection, schedule: Q04DX003 (ip), vehicle: saline) was 177 % of control and the T/C (dose: 3.3 mg/kg/injection, schedule: Q04DX003 (ip), vehicle: saline) was 186 % of control. For the same molecule, the T/C (dose: 5.0 mg/kg/injection, schedule: Q04DX003 (ip), vehicle: saline) was 227 % of control and the T/C (dose: 7.5 mg/kg/injection, schedule: Q04DX003 (ip), vehicle: saline) was 245 % of control.
For `CN1CCC1=O`, the T/C [13] was 105 % of control, the T/C [14] was 110 % of control and the T/C [15] was 97 % of control.
`O=C(O)C(=O)O.O=C(O)C(=O)O.[Co+2].[NH-]CCC[NH-]` was tested, and the T/C (dose: 12.5 mg/kg/injection, schedule: Q04DX002 (ip), vehicle: saline) was 99 % of control.
In the case of `O=C1N2CCCSC2=NC1(c1ccccc1)c1ccccc1`, the T/C [7] is reported as 97 % of control, the T/C [8] is reported as 98 % of control and the T/C [9] is reported as 89 % of control.
With `CC(=O)Nc1c(Cl)c(Cl)c2c(c1Cl)Cc1cc(Cl)c(Cl)cc1-2` the T/C (dose: 12.5 mg/kg/injection, schedule: Q01DX009 (ip), vehicle: saline with Tween-80) was 100 % of control, the T/C (dose: 25.0 mg/kg/injection, schedule: Q01DX009 (ip), vehicle: saline with Tween-80) was 100 % of control and the T/C [1] was 95 % of control. For the same molecule, the T/C [10] was 109 % of control, the T/C [11] was 100 % of control and the T/C [12] was 104 % of control.
With `C(=C/c1cc2ccc(C3=NCCN3)cc2o1)/c1cc2cc(C3=NCCN3)ccc2[nH]1` the T/C (dose: 200.0 mg/kg/injection, schedule: Q04DX003 (ip), vehicle: suspension in saline) was 113 % of control.
In the case of `C1CCN(CCCCN2CCCCC2)CC1`, the T/C (dose: 25.0 mg/kg/injection, schedule: Q01DX009 (ip), vehicle: saline) is reported as 93 % of control and the T/C [13] is reported as 88 % of control.
For `NC(c1ccccc1)c1cccs1` (stereo unspecified), the T/C (dose: 50.0 mg/kg/injection, schedule: Q01DX005 (ip), vehicle: Klucel (hydroxypropylcellulose) (HPC)) was 100 % of control and the T/C (dose: 100.0 mg/kg/injection, schedule: Q01DX005 (ip), vehicle: Klucel (hydroxypropylcellulose) (HPC)) was 105 % of control.
For `O=C(O)c1ccc(Cn2ccc(=O)[nH]c2=O)cc1`, the T/C (dose: 100.0 mg/kg/injection, schedule: Q01DX001 (ip), vehicle: saline with Tween-80) was 100 % of control, the T/C (dose: 200.0 mg/kg/injection, schedule: Q01DX001 (ip), vehicle: saline with Tween-80) was 100 % of control and the T/C (dose: 400.0 mg/kg/injection, schedule: Q01DX001 (ip), vehicle: saline with Tween-80) was 100 % of control.
